# In PMC11748689, “Pharmacological and structural understanding of the Trypanosoma cruzi proteasome provides key insights for developing site-specific inhibitors” (The Journal of Biological Chemistry, 2024):
# Key:
# Format in all cases: biochemical
# [1] = target: native T. cruzi proteasome (chymotrypsin-like activity, β5) (Trypanosoma cruzi, UniProt V5BU39+V5C017); assay: Chymotrypsin-like activity assay (Proteasome-Glo), native T. cruzi proteasome
# Protocol: (§1) Chymotrypsin-, trypsin-, and caspase-like activity assays were performed using a commercially available Proteasome-Glo 3-substrate system assay kit (catalog number G8532) (Promega Corporation) according to the manufacturers protocols and as previously described ([24]).
# (§2) Prior to running assays, Proteasome-Glo buffer was used to reconstitute the luciferin detection reagent (containing a recombinant thermostable luciferase enzyme). The resuspended luciferin detection reagent was then mixed with Proteasome-Glo chymotrypsin-, trypsin- or caspase-like substrates (either 40 μM suc-Leu-Leu-Val-Tyr-aminoluciferin, 30 μM Z-Leu-Arg-Arg-aminoluciferin (Z is benzyloxycarbonyl) or 40 μM Z-Nle-Pro-Nle-Asp-aminoluciferin respectively (these concentrations represent 2x final assay concentrations)). These substrate mixtures were allowed to incubate at room temperature for 60 min prior to use to allow the removal of any contaminating free aminoluciferin.
# When proteasome inhibitors were to be screened in the chymotrypsin, trypsin, and caspase assays, test compounds were dispensed into assay wells using an ECHO 550 acoustic dispenser (Labcyte) (final DMSO concentration 1%). Compounds were tested in either a 10-point concentration series (30 μM top final assay concentration, 1 in 3 dilution series) or a 12-point concentration series (30 μM top final assay concentration, 1 in 2.5 dilution series).
# Proteasome assays were then performed as described above using Promega Proteasome-Glo 3-substrate system assay kit. […] Diluted proteasome (4 μl) was added to assay plates using an electronic multichannel pipette (Integra Biosciences Ltd) and the proteasome incubated with compound for 60 min at room temperature.
# Following the 60 min incubation of proteasome and compounds, assays were initiated with the addition of 4 μl of a substrate mix (containing substrate and the luciferin detection reagent) using an electronic multichannel pipette. Final assay concentrations of substrates used were either 20 μM Suc-Leu-Leu-Val-Tyr-aminoluciferin, 15 μM Z-Leu-Arg-Arg-aminoluciferin, or 20 μM Z-Nle-Pro-Nle-Asp-aminoluciferin for chymotrypsin-, trypsin-, or caspase-like activity, respectively. Following a further 60 min assay incubation, luminescence was read using an EnVision 2102 Multilabel Reader (PerkinElmer, Inc) with 0.2 s per well reading time.
# All data processing was performed using Microsoft Excel for Microsoft 365 software.
# Nonlinear dose-response curve fitting was carried out using the Microsoft Excel add-in, XLfit (IDBS). Percentage inhibition data were either fitted to a standard 4-parameter logistic fit model (XLfit model 205; Equation 2) or a biphasic model (either XLfit model 300; Equation 3 or a custom biphasic model; Equation 4 (used in cases where the top and/or bottom parameters deviated from 100%/0% inhibition)).(2) y=A+(B−A)/1+(C/x)^D Where A = % inhibition at bottom, B = % inhibition at top, C = IC50, D = slope, x = inhibitor concentration and y = % inhibition.(3) y=(A/(1+10^(C−log(x))∗B))+((100−A)/(1+10^(D−log(x))∗B)) With A = % inhibition at midplateau, B = slope, C = log(IC50^A), D = log(IC50^B)).
# All IC50 data generated were converted to pIC50 using Equation 5.
# [2] = target: recombinant Δβ1Δβ2 mutant T. cruzi proteasome (chymotrypsin-like activity) (Trypanosoma cruzi, UniProt V5BU39+V5C017); assay: biochemical
# Protocol: (§3) Point mutations were created in individual subunits using overlapping PCR from the original templates using Polh and Tn7L primers outside the genes and suitable internal primers to introduce selected mutations. For Δβ1Δβ2, β1 Thr 55, and β2 Thr 67 were both mutated to Ala, the β4^R mutant was produced by mutating Phe 24 and Ile 29 to Leu and Met respectively in β4 subunit.
# as §1, §2
# (§4) Proteasome assays were carried out using 384-well, white, low-volume plates (catalog number 784904) (Greiner Bio-One) at room temperature (∼23 °C) in 8 μl reaction volumes. When activity checks were to be run in the presence or absence of a fixed concentration of proteasome inhibitor, 80 nL of the inhibitor (at a concentration 100x the required final assay concentration), or 80 nL dimethylsulfoxide (DMSO), were dispensed into assay plates using an Echo 550 acoustic dispenser (Labcyte).
# (§5) A 1 in 2 dilution series of the various T. cruzi proteasome samples (native, recombinant WT, β4^R mutant, and Δβ1Δβ2 mutant) were produced in assay buffer (50 mM Tris–HCl, pH 7.5, 10 mM sucrose, 5 mM MgCl2, 1 mM DTT, 2 mM ATP, 150 mM NaCl, 1 mM EDTA, and 0.05 mg/ml bovine serum albumin). Subsequently, 4 μl of the various concentrations of diluted proteasome were added to assay plates using an electronic multichannel pipette (Integra Biosciences Ltd). When kinetic read activity checks were performed (Fig. 2), proteasome final assay concentrations used were 115 μg/ml, 115 μg/ml, and 230 μg/ml native proteasome (in the chymotrypsin, trypsin, and caspase assays, respectively), and 4.1 μg/ml, 3.4 μg/ml, or 1.4 μg/ml recombinant WT proteasome (in the chymotrypsin, trypsin, and caspase assays, respectively). When activity checks were to be run in the presence or absence of a proteasome inhibitor plates containing inhibitor or DMSO control were incubated with the relevant proteasome sample for 60 min at room temperature (this step was not included in activity check experiments where compounds were not used).
# (§6) Following the 60 min incubation of proteasome and compound (if required), assays were initiated with the addition of 4 μl of substrate mix (containing substrate and the luciferin detection reagent) using an electronic multichannel pipette. Final assay concentrations of substrates used were either 20 μM Suc-Leu-Leu-Val-Tyr-aminoluciferin, 15 μM Z-Leu-Arg-Arg-aminoluciferin, or 20 μM Z-Nle-Pro-Nle-Asp-aminoluciferin for chymotrypsin-, trypsin- or caspase-like activity respectively.
# (§7) Luminescence was read either kinetically or as an endpoint read using an EnVision 2102 Multilabel Reader (PerkinElmer, Inc) with 0.2 s per well reading time. When kinetic assays were run, luminescence was read every 5 min for 90 min. Endpoint assays were run for 60 min before luminescence was read. All data processing and linear fit analyses were performed using Microsoft Excel for Microsoft 365 software (Redmond, Washington; https://www.microsoft.com/).
# [3] = target: recombinant β4^R mutant T. cruzi proteasome (chymotrypsin-like activity) (Trypanosoma cruzi, UniProt V5BU39+V5C017, F24L/I29M); assay: biochemical
# Protocol: as §3, §1, §2, §4, §5, §6, §7
# [4] = target: recombinant β4^R mutant T. cruzi proteasome (trypsin-like activity) (Trypanosoma cruzi, UniProt V5BCU3); settings: for pIC50, Trypsin Assay, β4^R mutant: mean ± SD, N = 3
# Protocol: as §3, §1, §2, §4, §5, §6, §7
# [5] = target: recombinant β4^R mutant T. cruzi proteasome (caspase-like activity) (Trypanosoma cruzi, UniProt V5BHX1); assay: Caspase-like activity assay (Proteasome-Glo), recombinant β4^R mutant T. cruzi proteasome
# Protocol: as §3, §1, §2, §4, §5, §6, §7
Compound,IC50 [1],IC50 [2],"inhibition of chymotrypsin activity, Δβ1Δβ2 mutant, fixed concentration ([2]; 1 μM compound (Fig. 7B))",IC50 [3],"inhibition of chymotrypsin activity, β4^R mutant, fixed concentration ([3]; 1 μM compound (Fig. 7C))","inhibition of trypsin activity, β4^R mutant, fixed concentration ([4]; 1 μM compound (Fig. S4))","pIC50, Trypsin Assay, β4^R mutant [4]",IC50 [5],"inhibition of caspase activity, β4^R mutant, fixed concentration ([5]; 1 μM compound (Fig. S4))","extent of inhibition in chymotrypsin dose-response curve, Δβ1Δβ2 mutant ([2]; top of dose-response curve)"
O=C(Nc1ccc(F)c(-c2cn3nc(-c4ccccc4)cnc3n2)c1)N1CCCC1 [DDD01012248],30.9 nM,41.7 nM,full inhibition,2000 nM,no notable inhibition,did not inhibit,<4.52,> 30200 nM,did not inhibit,
"O=C(Nc1ccc(F)c(C(=O)NC2CC2)c1)c1ccc(COc2ccccc2)o1 [DDD02091966, N-(3-(cyclopropylcarbamoyl)-4-fluorophenyl)-5-(phenoxymethyl)furan-2-carboxamide]",38 nM,45.7 nM,,> 30200 nM,,,<4.52,> 30200 nM,,unable to fully inhibit
